Assays:
[1] = target: T1, hOX1 (orexin-1 receptor) (Homo sapiens, UniProt O43613); assay: radioligand binding assay, OX1 receptor (hOX1 Bind hKi); conditions: membranes from CHO cells expressing the OX1 receptor
T1 construct: expressed in transfected cells; host or cells: CHO cells (membranes)
T1 sequence (O43613 1-425): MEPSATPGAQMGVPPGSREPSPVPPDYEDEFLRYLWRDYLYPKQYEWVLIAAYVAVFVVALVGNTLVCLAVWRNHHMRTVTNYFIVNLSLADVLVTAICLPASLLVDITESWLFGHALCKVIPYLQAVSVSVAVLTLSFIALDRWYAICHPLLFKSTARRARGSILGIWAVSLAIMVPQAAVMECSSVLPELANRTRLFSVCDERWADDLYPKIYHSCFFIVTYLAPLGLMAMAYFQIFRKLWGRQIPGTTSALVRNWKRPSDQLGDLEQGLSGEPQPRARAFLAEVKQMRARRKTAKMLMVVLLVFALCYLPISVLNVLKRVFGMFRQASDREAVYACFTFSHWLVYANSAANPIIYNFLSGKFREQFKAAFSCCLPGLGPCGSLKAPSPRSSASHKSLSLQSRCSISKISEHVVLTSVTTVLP

[2] = target: T2, human orexin-2 receptor (Homo sapiens, UniProt O43614); assay: radioligand binding assay, OX2 receptor (hOX2 Bind hKi); conditions: membranes from CHO cells expressing the OX2 receptor
T2 construct: expressed in transfected cells; host or cells: CHO cells (membranes)
T2 sequence (O43614 1-444): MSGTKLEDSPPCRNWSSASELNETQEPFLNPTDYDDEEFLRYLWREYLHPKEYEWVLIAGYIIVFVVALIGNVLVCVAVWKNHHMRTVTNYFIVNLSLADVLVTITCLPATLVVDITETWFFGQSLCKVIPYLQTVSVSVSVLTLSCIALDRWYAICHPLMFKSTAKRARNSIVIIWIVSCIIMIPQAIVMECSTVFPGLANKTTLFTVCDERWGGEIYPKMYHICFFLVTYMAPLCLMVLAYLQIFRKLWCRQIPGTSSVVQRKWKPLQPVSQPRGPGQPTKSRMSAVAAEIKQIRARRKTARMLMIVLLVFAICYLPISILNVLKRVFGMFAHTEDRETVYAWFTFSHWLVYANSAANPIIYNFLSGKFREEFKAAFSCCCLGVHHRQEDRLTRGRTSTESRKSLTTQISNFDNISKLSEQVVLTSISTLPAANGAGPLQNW
Procedure: The utility of the compounds in accordance with the present invention as orexin receptor OX1R and/or OX2R antagonists may be readily determined without undue experimentation by methodology well known in the art, including the “FLIPR Ca^2+ Flux Assay” (Okumura et al., Biochem. Biophys. Res. Comm. 280:976-981, 2001). In a typical experiment the OX1 and OX2 receptor antagonistic activity of the compounds of the present invention was determined in accordance with the following experimental method. For intracellular calcium measurements, Chinese hamster ovary (CHO) cells expressing the rat orexin-1 receptor or the human orexin-2 receptor, are grown in Iscove's modified DMEM containing 2 mM L-glutamine, […], 1% hypoxanthine-thymidine supplement, 100 U/ml penicillin, 100 μg/ml streptomycin and 10% heat-inactivated fetal calf serum (FCS). The cells are seeded at 20,000 cells/well into Becton-Dickinson black 384-well clear bottom sterile plates coated with poly-D-lysine. All reagents were from GIBCO-Invitrogen Corp. The seeded plates are incubated overnight at 37° C. and 5% CO2. Ala-6,12 human orexin-A as the agonist is prepared as a 1 mM stock solution in 1% bovine serum albumin (BSA) and diluted in assay buffer (HBSS containing 20 mM HEPES, 0.1% BSA and 2.5 mM probenecid, pH7.4) for use in the assay at a final concentration of 70 pM. Test compounds are prepared as 10 mM stock solution in DMSO, then diluted in 384-well plates, first in DMSO, then assay buffer. On the day of the assay, cells are washed 3 times with 100 μl assay buffer and then incubated for 60 min (37° C., 5% CO2) in 60 μl assay buffer containing 1 μM Fluo-4AM ester, 0.02% pluronic acid, and 1% BSA. The dye loading solution is then aspirated and cells are washed 3 times with 100 μl assay buffer. 30 μl of that same buffer is left in each well. Within the Fluorescent Imaging Plate Reader (FLIPR, Molecular Devices), test compounds are added to the plate in a volume of 25 μl, incubated for 5 min and finally 25 μl of agonist is added. Fluorescence is measured for each well at 1 second intervals for 5 minutes and the height of each fluorescence peak is compared to the height of the fluorescence peak induced by […] Ala-6,12 orexin-A with buffer in place of antagonist. For each antagonist, IC50 value (the concentration of compound needed to inhibit 50% of the agonist response) is determined. Alternatively, compound potency can be assessed by a radioligand binding assay (described in Bergman et. al. Bioorg. Med. Chem. Lett. 2008, 18, 1425-1430) in which the inhibition constant (Ki) is determined in membranes prepared from CHO cells expressing either the OX1 or OX2 receptor. The intrinsic orexin receptor antagonist activity of a compound which may be used in the present invention may be determined by these assays. The following tables show representative data for the compounds of the Examples as orexin receptor antagonists as determined by the foregoing assays wherein the hOX2 Ki is a measure of the ability of the test compound to inhibit the action of the human orexin-2 receptor and the hOX1R is a measure of the ability of the test compound to inhibit the action of the rat orexin-1 receptor.

Ki [1] | Ki [2] | SMILES
27 nM | 11 nM | C[C@@H]1CCC(C#Cc2ccccn2)CN1C(=O)c1ccccc1-n1nccn1 (stereo in doubt) [Example 1, [(2R,5R)-2-Methyl-5-(pyridin-2-ylethynyl)piperidin-1-yl][2-(2H-1,2,3-triazol-2-yl)phenyl]methanone]
107 nM | 41 nM | C[C@@H]1CC[C@@H](C#Cc2ccncc2)CN1C(=O)c1ccccc1-n1nccn1 [Example 2, 4-{[(3S,6R)-6-methyl-1-{[2-(2H-1,2,3-triazol-2-yl)phenyl]carbonyl}piperidin-3-yl]ethynyl}pyridine]
26 nM | 7 nM | C[C@@H]1CC[C@@H](C#Cc2cccnc2)CN1C(=O)c1ccccc1-n1nccn1 [Example 3, 3-{[(3S,6R)-6-methyl-1-{[2-(2H-1,2,3-triazol-2-yl)phenyl]carbonyl}piperidin-3-yl]ethynyl}pyridine]
24 nM | 24 nM | C[C@@H]1CC[C@@H](C#Cc2cccnc2O)CN1C(=O)c1ccccc1-n1nccn1 [Example 4, 3-{[(3S,6R)-6-methyl-1-{[2-(2H-1,2,3-triazol-2-yl)phenyl]carbonyl}piperidin-3-yl]ethynyl}pyridin-2-ol]
866 nM | 7.5 nM | C[C@@H]1CC[C@@H](C#Cc2cnccc2O)CN1C(=O)c1ccccc1-n1nccn1 [Example 5, 3-{[(3S,6R)-6-methyl-1-{[2-(2H-1,2,3-triazol-2-yl)phenyl]carbonyl}piperidin-3-yl]ethynyl}pyridin-4-ol]
0.56 nM | 0.53 nM | C[C@@H]1CC[C@@H](C#Cc2ccccc2CO)CN1C(=O)c1ccccc1-n1nccn1 [Example 6, (2-{[(3S,6R)-6-methyl-1-{[2-(2H-1,2,3-triazol-2-yl)phenyl]carbonyl}piperidin-3-yl]ethynyl}phenyl)methanol]
339 nM | ~150 nM | C[C@@H]1CC[C@@H](C#Cc2ccc(CO)nc2)CN1C(=O)c1ccccc1-n1nccn1 [Example 7, (5-{[(3S,6R)-6-methyl-1-{[2-(2H-1,2,3-triazol-2-yl)phenyl]carbonyl}piperidin-3-yl]ethynyl}pyridin-2-yl)methanol]
211 nM | 130 nM | C[C@@H]1CC[C@@H](C#Cc2ccc(CO)cn2)CN1C(=O)c1ccccc1-n1nccn1 [Example 8, (6-{[(3S,6R)-6-methyl-1-{[2-(2H-1,2,3-triazol-2-yl)phenyl]carbonyl}piperidin-3-yl]ethynyl}pyridin-3-yl)methanol]
18 nM | 5.6 nM | C[C@@H]1CC[C@@H](C#Cc2cccc(CO)n2)CN1C(=O)c1ccccc1-n1nccn1 [Example 9, (6-{[(3S,6R)-6-methyl-1-{[2-(2H-1,2,3-triazol-2-yl)phenyl]carbonyl}piperidin-3-yl]ethynyl}pyridin-2-yl)methanol]
76 nM | 42 nM | C[C@@H]1CC[C@@H](C#Cc2cc(CO)ccn2)CN1C(=O)c1ccccc1-n1nccn1 [Example 10, (2-{[(3S,6R)-6-methyl-1-{[2-(2H-1,2,3-triazol-2-yl)phenyl]carbonyl}piperidin-3-yl]ethynyl}pyridin-4-yl)methanol]
108 nM | 32 nM | C[C@@H]1CC[C@@H](C#Cc2cncc(CO)c2)CN1C(=O)c1ccccc1-n1nccn1 [Example 11, (5-{[(3S,6R)-6-methyl-1-{[2-(2H-1,2,3-triazol-2-yl)phenyl]carbonyl}piperidin-3-yl]ethynyl}pyridin-3-yl)methanol]
75 nM | 25 nM | C[C@@H]1CC[C@@H](C#Cc2ccnc(CO)c2)CN1C(=O)c1ccccc1-n1nccn1 [Example 12, (4-{[(3S,6R)-6-methyl-1-{[2-(2H-1,2,3-triazol-2-yl)phenyl]carbonyl}piperidin-3-yl]ethynyl}pyridin-2-yl)methanol]
357 nM | 441 nM | Cc1ccc(-n2nccn2)c(C(=O)N2CCCCC2C#Cc2ccccc2)c1 (centres unmarked) [Example 14, [5-Methyl-2-(2H-1,2,3-triazol-2-yl)phenyl][2-(phenylethynyl)piperidin-1-yl]methanone]
> 2540 nM | 1000 nM | Cc1ccc(-n2nccn2)c(C(=O)N2CCCCC2C#Cc2ccc(F)cn2)c1 (centres unmarked) [Example 15, 5-fluoro-2-[(1-{[5-methyl-2-(2H-1,2,3-triazol-2-yl)phenyl]carbonyl}piperidin-2-yl)ethynyl]pyridine]
248 nM | 160 nM | Cc1ccc(-n2nccn2)c(C(=O)N2CCCCC2C#Cc2ccc(F)cc2)c1 (centres unmarked) [Example 16, 2-[(4-fluorophenyl)ethynyl]-1-{[5-methyl-2-(2H-1,2,3-triazol-2-yl)phenyl]carbonyl}piperidine]
332 nM | > 4460 nM | Cc1ccc(-n2nccn2)c(C(=O)N2CCCCC2C#Cc2ccc3ccccc3n2)c1 (centres unmarked) [Example 17, 2-[(1-{[5-methyl-2-(2H-1,2,3-triazol-2-yl)phenyl]carbonyl)piperidin-2-yl)ethynyl]quinoline]
> 476 nM | > 4460 nM | Cc1ccc(-n2nccn2)c(C(=O)N2CCCCC2C#Cc2cnc3ccccc3c2)c1 (centres unmarked) [Example 18, 3-[(1-{[5-methyl-2-(2H-1,2,3-triazol-2-yl)phenyl]carbonyl}piperidin-2-yl)ethynyl]quinoline]
> 476 nM | 2830 nM | Cc1ccc(-n2nccn2)c(C(=O)N2CCCCC2C#Cc2ccc3ccccc3c2)c1 (centres unmarked) [Example 19, 1-{[5-methyl-2-(2H-1,2,3-triazol-2-yl)phenyl]carbonyl}-2-(naphthalen-2-ylethynyl)piperidine]
257 nM | > 1170 nM | Cc1nc(C(=O)N2CCCCC2C#Cc2ccccc2)c(-c2ccccc2)s1 (centres unmarked) [Example 20, (2-Methyl-5-phenyl-1,3-thiazol-4-yl) [2-(phenylethynyl)piperidin-1-yl]methanone]
> 1600 nM | > 754 nM | Cc1nc(C(=O)N2CCCCC2C#Cc2ccc3ccccc3c2)c(-c2ccccc2)s1 (centres unmarked) [Example 21, 1-[(2-methyl-5-phenyl-1,3-thiazol-4-yl)carbonyl]-2-(naphthalen-2-ylethynyl)piperidine]
> 2710 nM | > 2300 nM | Cc1nc(C(=O)N2CCCCC2C#Cc2ccc(F)cn2)c(-c2ccccc2)s1 (centres unmarked) [Example 22, 5-fluoro-2-({1-[(2-methyl-5-phenyl-1,3-thiazol-4-yl)carbonyl]piperidin-2-yl}ethynyl)pyridine]
186 nM | 721 nM | Cc1nc(C(=O)N2CCCCC2C#Cc2ccc(F)cc2)c(-c2ccccc2)s1 (centres unmarked) [Example 23, 2-[(4-fluorophenyl)ethynyl]-1-[(2-methyl-5-phenyl-1,3-thiazol-4-yl)carbonyl]piperidine]

From patent US8940898B2, “Piperidinyl alkyne orexin receptor antagonists” (Merck Sharp & Dohme Corp., priority 2011, dated 2015)
